# Where two headings read alike, the source gives them in different places.
# What was measured:
# [1] = test system: P. falciparum stage V gametocytes; experiment: Gametocytocidal ATP bioluminescence assay (single point 5 μM and 1 μM, dose-response); assay type: cell-based, Plasmodium falciparum; conditions: for Ratio IC50 HepG2/IC50 P. falciparum: IC50 HepG2 divided by IC50 P. falciparum gametocytes
# Description: Purified stage IV-V gametocytes were obtained as previously described [10]. Single point ATP bioluminescence assay and dose–response of positive hits was determined in accordance with the previously published protocol [10].
# HepG2 cells = experiment: Cytotoxicity in HepG2 cells (intracellular ATP, ATPlite, 48 h); assay type: cell-based, human; conditions: HepG2 cells; IC50 per ratio column head; unit inferred
# [2] = test system: P. falciparum asexual stages; conditions: asexual stages; TCAMS data; read-out: IC50 asexual; cited from earlier work
# [3] = P. falciparum gametocytes, average, read-out: IC50 Pf Gametocytes average, IC50 (µM) average
# [4] = sexual stages (gametocytes), dose-response, read-out: IC50 sexual
SMILES,Ratio IC50 HepG2/IC50 P. falciparum [1],"IC50 [1, 3] [µM]","IC50 [1, 4] [µM]",IC50 (HepG2 cells) [nM],IC50 [2] [nM]
CCc1c(CCNCCCCCCNC(C)Cc2ccc3c(c2CC)OCO3)ccc(OC)c1OC (stereo not drawn) [TCMDC-132052],10,0.33,0.325,3100,870
COc1c(CCNCCCCNCCc2cc(Cl)c3ccccc3c2OC)cc(Cl)c2ccccc12 [TCMDC-137869],40,0.08,0.083,3360,168
Cc1ccc(C)c(NC(=O)CC2C(=O)N(c3ccccc3)C(=S)N2Cc2ccco2)c1 (stereo not drawn) [TCMDC-124000],>7.7,1.3,,> 10000,570
COc1cc2ccccc2cc1OCCCN1CCN(CC(c2ccc(F)cc2)N2CCN(C(C)C)CC2)CC1 (stereo not drawn) [TCMDC-135496],3,1.25,1.25,3720,749
C=C(C)Cn1cc(C2CCN(CCN3CCC(CNC(=O)c4ccc(-c5ccc(C#N)cc5)cc4)CC3)CC2)c2ccccc21 [TCMDC-138854],1.26,2.93,,3700,433
NC(N)=NN=Cc1c2ccccc2c(Cl)c2cc(Cl)ccc12 [TCMDC-137903],3.2,2.35,2.35,7500,791
C#CCOc1ccc2ccccc2c1CNCCCCCCNCc1c(OCC#C)ccc2ccccc12 [TCMDC-137838],6.38,0.5,,3190,780
CC(C)CNCc1cccc(-c2cccc(CN(CCCN3CCN(C)CC3)C(=O)CCC3CCCC3)c2)c1 [TCMDC-140554],7.58,0.6,,4550,624
COc1cccc(CCNCCCCCCNCCc2ccc(Cl)cc2)c1 [TCMDC-131284],12,0.53,,6100,1010
O=C(C1CC1c1ccccc1)N(Cc1ccc(-c2ccc(CNCCc3ccccc3)cc2)cc1)C1CCNCC1 (stereo not drawn) [TCMDC-141443],17,0.39,0.385,6700,1110
O=C(Nc1ccc(F)c(C(F)(F)F)c1)NC1CCN(CCCCCNC(=O)C2CC2c2ccc(Cl)c(Cl)c2)CC1 (stereo not drawn) [TCMDC-136259],1.47,4.35,,6400,663
CCn1c(-c2nonc2N)nc2c(-c3cccc(NC(=O)Nc4cccc(Cl)c4)c3)ncc(OCCCN)c21 [TCMDC-136193],7,2.17,2.17,14500,941
CC(CCCCC(=O)Nc1ccc(CC(C)NCCc2cccc(Cl)c2)cc1)NCCc1cccc(Cl)c1 (stereo not drawn) [TCMDC-139799],4,1.66,1.66,6590,1010
C[C@H](Cc1ccc(Oc2ccc(C[C@@H](C)NC[C@H](O)c3cccc(Cl)c3)cc2)cc1)NC[C@H](O)c1cccc(Cl)c1 [TCMDC-131560],7,0.27,,1910,560
Cc1ccc2nc(C)cc(N/N=C/c3ccc([N+](=O)[O-])cc3)c2c1 [TCMDC-142070],0.0202,9.41,,190,793
CCN(CC)CCCNc1ncc2c(-c3ccc(NC(=O)Nc4cc(C(F)(F)F)ccc4F)cc3)nn(C)c2n1 [TCMDC-141583],2.73,3.48,,9500,220
CCN(CC)/C(=N/C(=N)Nc1ccc(Cl)c(Cl)c1)NCCCCCCN/C(=N\C(=N)Nc1ccc(Cl)c(Cl)c1)N(CC)CC [TCMDC-131808],>7,3.44,3.44,> 25000,761
CSc1ccc2ccccc2c1CCNCCCCNCCc1c(SC)ccc2ccccc12 [TCMDC-137763],7,0.23,,1650,408
CN(C)CCN(Cc1ccccc1-c1ccc(CNCCc2ccccc2)cc1)C(=O)NC1CCCCC1 [TCMDC-140626],18,0.35,,6400,906
O=C(c1cccs1)N(Cc1cccc(-c2ccc(CNC3CCCC3)cc2)c1)C1CCN(Cc2ccccc2)CC1 [TCMDC-140567],8,0.85,0.845,7100,1130
COc1cc(Br)c(S(=O)(=O)n2cc(CN3CCC(N)CC3)c3cc(Cl)ccc32)cc1OC [TCMDC-136384],2.77,2.42,2.42,6700,985
CCCCOc1ccc(C(=O)C(CCC(CNC(C)(C)C)C(=O)c2ccc(OCCCC)cc2)CNC(C)(C)C)cc1 (stereo not drawn) [TCMDC-124120],10,0.3,,3100,1020

SMILES,Ratio IC50 HepG2/IC50 P. falciparum [1],"IC50 [1, 3] [µM]","IC50 [1, 4] [µM]",IC50 (HepG2 cells) [nM],IC50 [2] [nM]
FC(F)(F)COc1ccc(CNCCCCCCNCc2ccc(OCC(F)(F)F)c3ccccc23)c2ccccc12 [TCMDC-137853],55,0.055,,3000,400
Cc1oc(-c2ccc(Cl)cc2)cc1C(=O)NCCC1CCN(CCCCCNC(=O)/C=C/c2ccc(Cl)c(Cl)c2)CC1 [TCMDC-140009],0.755,5.43,,4100,446
CN1CCN(CCCN(Cc2cccc(-c3ccc(CNCCc4ccccc4)cc3)c2)C(=O)c2cccs2)CC1 [TCMDC-140568],6,0.89,,5600,716
O=C(/C=C/c1ccc(Cl)c(Cl)c1)NCCCCCN1CCCC(CNS(=O)(=O)c2cccc(C(F)(F)F)c2)C1 (stereo not drawn) [TCMDC-139597],0.4,8.63,,3800,950
ON=C1CCc2cc(-c3cc(-c4ccc(OC5CCNCC5)cc4)oc3-c3ccncc3)ccc21 [TCMDC-141381],28,0.27,,7500,157
O=C(O)CCSSc1cccc[n+]1[O-] [TCMDC-141973],29,0.27,,7800,808
CCCCOc1c(CCNCCCCNCCc2cc(OC)c3ccccc3c2OCCCC)cc(OC)c2ccccc12 [TCMDC-137848],39,0.08,,3100,925
COc1c(OC)c(OC)c2ccccc2c1CNCCCCCCNCc1c(OC)c(OC)c(OC)c2ccccc12 [TCMDC-137827],2.79,1.15,1.15,3200,759
CC(C)CNCc1cccc(-c2ccccc2CN(C(=O)NCCc2ccccc2)C2CCN(Cc3ccccc3)CC2)c1 [TCMDC-140608],<1,> 10,,6600,1170
Cc1cc(N[C@@H](Cc2ccccc2)C(=O)NCCc2ccccc2)nc(NCCc2ccccc2)n1 [TCMDC-134776],<1,> 10,,13600,850
COc1ccc2ccc(OC)c(CNCCCCCCNCc3c(OC)ccc4ccc(OC)cc34)c2c1 [TCMDC-137796],12,0.29,0.285,3400,699
C=CCC1OC(=O)c2cc(OC)cc(OC)c21 (stereo not drawn) [TCMDC-138677],<2.6,0.6,,< 1560,343
c1ccc2c(NCCCCCCCCNc3ccnc4ccccc34)ccnc2c1 [TCMDC-137751],3.46,1.08,,3740,155
COc1cccc(OC)c1CN1CCC(N(C)CCCCCCCCN2CCC(OC(=O)Nc3ccccc3-c3ccccc3)CC2)CC1 [TCMDC-134684],3.29,1.04,1.03,3400,458
CN1CCN(CCCN(Cc2cccc(-c3ccc(CNC4CCCC4)cc3)c2)C(=O)/C=C/c2ccccc2)CC1 [TCMDC-140544],9,0.74,0.735,6390,746
CCc1c(CCNCCCCCCNCCc2ccc(OC)c(OC)c2C)ccc(OC)c1OC [TCMDC-132051],10,0.77,,7750,1570
Cc1cc(NCCc2ccccc2)nc(/N=C(\N)Nc2ccccc2Cl)n1 [TCMDC-138370],2.79,4.87,,13600,789
CCOc1cc(CNCCCCCCNCc2cc(OCC)c(OCC)c3ccccc23)c2ccccc2c1OCC [TCMDC-137939],3.62,0.75,0.745,2700,284
COc1cc2ccccc2c(CNCCCCCCNCc2c(OC)c(OC)cc3ccccc23)c1OC [TCMDC-137795],4.5,1.05,1.04,4700,1110
COc1ccc2c(c1CNCCCCCCNCc1c(OC)ccc3c1CCCC3)CCCC2 [TCMDC-137817],9,0.42,,3830,907
CN(CCCCN)Cc1ccc(-c2ccc(Cl)cc2)cc1 [TCMDC-140123],10,0.41,0.413,3990,882

# Source: publication PMC4552634, “A New Set of Chemical Starting Points with Plasmodium falciparum Transmission-Blocking Potential for Antimalarial Drug Discovery” (PLoS ONE, 2015)
